Assay results published in patent US12564568B2, “PKC pathway in Parkinson's Disease” (CEDARS-SINAI MEDICAL CENTER, priority 2018, dated 2026).
“Also recorded” adds a separate entry of the source.

Legend:
α-synuclein [1] = test: α-synuclein protein level in day 30 iPSC-derived mDA (DaN) cultures after drug treatment (western blot, immunostaining); format: cell-based, human
Method: iPSC maintenance, mDA neuron differentiation and drug treatments: iPSCs were maintained in E8 media on Matrigel and passaged every 5 days at split ratios from 1:6 to 1:12 as needed using Versene. Only iPSCs between passage 17 and passage 35 were used in this study. For differentiation, iPSCs were grown to ˜80% confluency. Cells were singularized with Accutase (Millipore/Sigma #SCR005) (5 minutes at 37° C.) and plated onto Matrigel-coated 6-well plates (BD Biosciences) at 200K cells per cm^2 (for a fully confluent monolayer) in E8 media with 5 μM Y27632 (StemGent). 24 hours after plating, media was changed to Stage 1 (50% DMEM/F12, 50% Neurobasal, N2, B27-Vitamin A, LDN-193189 (LDN), SB431542 (SB)). Stage 1 media was changed each day (3 mL per well) for 3 days. Media was next switched to Stage 2 (50% DMEM/F12, 50% Neurobasal, N2, B27-Vitamin A, LDN, SB, Purmorphamine (PMN), CHIR99021 (CHIR), Sonic hedgehog (SHH), Fibroblast Growth Factor 8 (FGF8)). Stage 2 media was changed each day (3 mL per well) for 4 days. Media was then switched to Stage 3 (50% DMEM/F12, 50% Neurobasal, N2, B27-Vitamin A, LDN, CHIR, all-trans-Retinoic acid (ATRA)). Stage 3 media was changed each day (3 mL per well) for 4 days. Finally, media was switched to Stage 4 (50% DMEM/F12, 50% Neurobasal, N2, B27+Vitamin A, Brain-Derived Neurotrophic Factor (BDNF), Glial Cell Line-Derived Neurotrophic Factor (GDNF), dibutyryl cyclic-AMP sodium salt (dbCAMP), L-Ascorbic Acid (AA), γ-Secretase inhibitor (DAPT), CHIR, Transforming Growth Factor beta-3 (TGF β3)). Stage 4 media was changed each day (3 mL per well) for 3 days. On day 15, cells were dissociated to single cells using Accutase (20 mins at 37° C.) and gently lifted. Dissociated cells were resuspended in Maturation Medium (50% DMEM/F12, 50% Neurobasal, N2, B27+Vitamin A, BDNF, GDNF, dbCAMP, AA, DAPT, TGF3) plus 5 μM Y27632 and reseeded onto Matrigel-coated 6-well plates at 200 k/cm^2 in 1 mL total volume or onto Matrigel-coated L-glass coverslips in a 24-well plate at 200 k/50 μL drop. Cells were allowed to attach for 45 mins at 37° C. and Maturation Medium was then added to final volumes of 3 mL per well for 6-well plates or 1.5 mL per well for 24-well plates with coverslips. A full medium change was performed 48-hours post-seeding and medium was changed every 3 days until day 30. For drug treatments, cells at day-27 were fed with Maturation Medium containing the indicated drug and cells were analyzed at day 30.
Immunocytochemistry and imaging: mDA neuron cultures were plated on L-glass coverslips and grown as above. Day 30 neurons were fixed in 4% PFA at room temperature for 10-15 mins. Fixed coverslips were washed in PBS and permeabilized for 10 minutes at room temperature in 1% Triton X-100 in PBS, followed by staining in primary antibody solution (5% normal donkey serum, 0.125% Triton-X, PBS) overnight at 4° C. with the following antibodies: TH (1:5000, Immunostar #22941) and α-synuclein (1:500, Abcam #ab138501). Samples were washed 3 times in PBS and stained with species-specific Alexa Fluor 488 or 594-conjugated secondary antibodies (1:500, Invitrogen) for 2 hours at room temperature, followed by DAPI counterstain. Confocal Z-stack images were acquired using a A1 microscope (Nikon) with 40× and 20× objectives and rendered using maximum intensity projection through IMARIS software (Bitplane).
Western blot: Cells were gently scraped off the plates, washed with PBS, centrifuged at 15000 RPM for 1 min, and dry pellets were frozen at −80° C. Samples were then thawed and lysed using 1×NETN buffer (20 mM Tris-HCl (pH 8.0), 100 mM NaCl, 0.5 mM EDTA and 0.5% NP-40) supplemented with phosphatase/protease inhibitor cocktail (MS-SAFE, Sigma-Aldrich). Lysates were sonicated in an automated cold bath sonicator for 20 mins using alternating 10 sec pulses followed by 10 sec rests. Samples were centrifuged for 20 min at 4° C. at 15000 RPM. Total soluble protein concentrations were measured using a Bradford assay (BIO-RAD). […]

synuclein = test: Injection into the ventricles of WT mice, synuclein in striatum; format: in vivo, mouse; conditions: 0.3, 3, and 30 uM injected into ventricles of WT mice; 1 and 5 days post injection
Method: In vivo, PEP stimulates synuclein degradation. Dosage studies of 0.3, 3, and 30 uM PEP was injected into the ventricles of WT mice.

[2] = Dose ranging study in rat; format: in vivo; conditions: rats, for 7 days
Method: For dose ranging studies in rat and mini-pig. Repeated doses up to 15 ug/kg/day for 7 days were tolerated in rats, 5 ug/kg in pigs

[3] = Repeat dose tox study in rats; format: in vivo, rat; conditions: up to 10 ug/kg/day for 7 days, IV tail vein injection
Method: (§1) In a repeat dose tox study in rats—animals were given up to 10 ug/kg/day for 7 days by IV tail vein injection. […] In a repeat dose tox study in mini-pigs—animals were given up to 5 ug/kg/day IV approximately 1×/week.

[4] = Repeat dose tox study in mini-pigs; format: in vivo, mini-pig; conditions: 5 ug/kg dose IV approximately 1x/week, intake recovered afterwards
Method: as §1

[5] = PK profile in mice after IV tail vein injection; format: in vivo, mouse; conditions: 10 and 50 ug/kg IV tail vein
Method: In a study to determine PK profile of PEP in mice—10 and 50 ug/kg were administered by IV tail vein injection. […] Again potentially problematic for IV delivery.

α-synuclein [6] = test: α-synuclein protein level in day 30 iPSC-derived mDA (DaN) cultures after drug treatment (western blot, immunostaining); format: cell-based, human; conditions: in vitro, single 24-hour dose
PKC C1 domains = conditions: cited from earlier work
α-synuclein [7] = test: Unilateral striatal injection in wild-type C57BL/6 mice, α-synuclein in striatum (western blot, IHC); conditions: 215 ng dose, 3 days post-treatment

C/C=C(/C)C(=O)O[C@H]1C(C)=C[C@]23C(=O)[C@@H](C=C(CO)[C@@H](O)[C@]12O)[C@H]1[C@@H](C[C@H]3C)C1(C)C [PEP005, ingenol-3-angelate]
α-synuclein levels (western blot) (α-synuclein [1]; EOSPD/PD cultures (190iPD), treated 3 days from day 27, PEP005 1 μM, SMER-28 5 μM, Trehalose): substantially reduced | α-synuclein by immunostaining (α-synuclein [1]; PEP005-treated mDA cultures): decreased | α-synuclein levels (western blot) (α-synuclein [1]; both control and PD cultures / all treated lines, PEP005 1 μM, 3 days): reduced; also recorded: decrease; also recorded: rapid reduction | amount of α-synuclein protein (western blot) (α-synuclein [1]; control line cultures (02iCTR), treated 3 days from day 27, PEP005 1 μM, SMER-28 5 μM, Trehalose): significantly reduced | α-synuclein at low PEP005 doses (α-synuclein [1]; dose response study, low doses): robust reduction | time until α-synuclein is degraded in response to drug treatment (α-synuclein [1]; time-course, control and PD cultures): ≤ 24 h | synuclein in mouse striatum (synuclein): Reduction | tolerated repeated dose [2]: up to 15 ug/kg/day | tolerability [3]: well tolerated | food intake [4]: lower food intake the following day | serum concentration ([5]; 1 hour after): below detectable limits | clearance ([5]; >blood flow through the liver): very high clearance | duration for which synuclein levels remained depressed (α-synuclein [6]): 168 h | affinity for PKC C1 domains (PKC C1 domains): subnanomolar | α-synuclein levels in striatum, injected (L) relative to contralateral side (R) (α-synuclein [7]): significantly reduced; also recorded: reduces
